system: ACHN; experiment: Cytotoxicity against human ACHN cells […] by MTT assay; format: functional, cell-based; settings: not given

SMILES	IC50
COc1ccc(-c2cc(C(=O)N[C@@H]3c4cc5c(cc4[C@@H](c4cc(OC)c(OC)c(OC)c4)[C@H]4C(=O)OC[C@@H]43)OCO5)n[nH]2)cc1OC	31.6 µM
COc1cc([C@@H]2c3cc4c(cc3[C@@H](NC(=O)c3cc(-c5ccccc5)on3)[C@H]3COC(=O)[C@H]23)OCO4)cc(OC)c1OC	17.5 µM
COc1cc(-c2cc(C(=O)N[C@@H]3c4cc5c(cc4[C@@H](c4cc(OC)c(OC)c(OC)c4)[C@H]4C(=O)OC[C@@H]43)OCO5)n[nH]2)cc(OC)c1OC	27.1 µM
COc1cc(-c2cc(C(=O)N[C@@H]3c4cc5c(cc4[C@@H](c4cc(OC)c(OC)c(OC)c4)[C@H]4C(=O)OC[C@@H]43)OCO5)nc3cc(-c4ccccc4)nn23)cc(OC)c1OC	13.8 µM
COc1cc([C@@H]2c3cc4c(cc3[C@@H](NC(=O)c3cc(-c5ccc(F)c(F)c5)on3)[C@H]3COC(=O)[C@H]23)OCO4)cc(OC)c1OC	16.4 µM
COc1ccc(-c2cc(C(=O)N[C@@H]3c4cc5c(cc4[C@@H](c4cc(OC)c(OC)c(OC)c4)[C@H]4C(=O)OC[C@@H]43)OCO5)nc3cc(-c4ccccc4)nn23)cc1OC	19.3 µM
COc1ccc(-c2cc(C(=O)N[C@@H]3c4cc5c(cc4[C@@H](c4cc(OC)c(OC)c(OC)c4)[C@H]4C(=O)OC[C@@H]43)OCO5)nc3cc(-c4ccccc4)nn23)cc1	17.3 µM
COc1cc([C@@H]2c3cc4c(cc3[C@H](O)[C@H]3COC(=O)[C@H]23)OCO4)cc(OC)c1OC [PODOFILOX]	2.3 µM
COc1ccc(-c2cc(C(=O)N[C@@H]3c4cc5c(cc4[C@@H](c4cc(OC)c(OC)c(OC)c4)[C@H]4C(=O)OC[C@@H]43)OCO5)no2)cc1OC	23.1 µM
COc1ccc(-c2cc(C(=O)N[C@@H]3c4cc5c(cc4[C@@H](c4cc(OC)c(OC)c(OC)c4)[C@H]4C(=O)OC[C@@H]43)OCO5)no2)cc1	30.3 µM
COc1cc([C@@H]2c3cc4c(cc3[C@@H](NC(=O)c3cc(-c5ccc([N+](=O)[O-])cc5)n5nc(-c6ccccc6)cc5n3)[C@H]3COC(=O)[C@H]23)OCO4)cc(OC)c1OC	17.7 µM

system: HT-29; experiment: Cytotoxicity against human HT-29 cells after 72 hrs by MTT assay; format: functional, cell-based; settings: HT-29, 72 h

SMILES	IC50
COc1ccc(-c2cc(C(=O)N[C@@H]3c4cc5c(cc4[C@@H](c4cc(OC)c(OC)c(OC)c4)[C@H]4C(=O)OC[C@@H]43)OCO5)n[nH]2)cc1OC	36.3 µM
COc1cc([C@@H]2c3cc4c(cc3[C@@H](NC(=O)c3cc(-c5ccccc5)on3)[C@H]3COC(=O)[C@H]23)OCO4)cc(OC)c1OC	19.5 µM
COc1cc(-c2cc(C(=O)N[C@@H]3c4cc5c(cc4[C@@H](c4cc(OC)c(OC)c(OC)c4)[C@H]4C(=O)OC[C@@H]43)OCO5)n[nH]2)cc(OC)c1OC	16.8 µM
COc1cc(-c2cc(C(=O)N[C@@H]3c4cc5c(cc4[C@@H](c4cc(OC)c(OC)c(OC)c4)[C@H]4C(=O)OC[C@@H]43)OCO5)nc3cc(-c4ccccc4)nn23)cc(OC)c1OC	9.2 µM
COc1cc([C@@H]2c3cc4c(cc3[C@@H](NC(=O)c3cc(-c5ccc(F)c(F)c5)on3)[C@H]3COC(=O)[C@H]23)OCO4)cc(OC)c1OC	14.1 µM
COc1ccc(-c2cc(C(=O)N[C@@H]3c4cc5c(cc4[C@@H](c4cc(OC)c(OC)c(OC)c4)[C@H]4C(=O)OC[C@@H]43)OCO5)nc3cc(-c4ccccc4)nn23)cc1OC	14.5 µM
COc1ccc(-c2cc(C(=O)N[C@@H]3c4cc5c(cc4[C@@H](c4cc(OC)c(OC)c(OC)c4)[C@H]4C(=O)OC[C@@H]43)OCO5)nc3cc(-c4ccccc4)nn23)cc1	5.7 µM
COc1cc([C@@H]2c3cc4c(cc3[C@H](O)[C@H]3COC(=O)[C@H]23)OCO4)cc(OC)c1OC [PODOFILOX]	1.02 µM
COc1ccc(-c2cc(C(=O)N[C@@H]3c4cc5c(cc4[C@@H](c4cc(OC)c(OC)c(OC)c4)[C@H]4C(=O)OC[C@@H]43)OCO5)no2)cc1OC	38.4 µM
COc1ccc(-c2cc(C(=O)N[C@@H]3c4cc5c(cc4[C@@H](c4cc(OC)c(OC)c(OC)c4)[C@H]4C(=O)OC[C@@H]43)OCO5)no2)cc1	32.1 µM
COc1cc([C@@H]2c3cc4c(cc3[C@@H](NC(=O)c3cc(-c5ccc([N+](=O)[O-])cc5)n5nc(-c6ccccc6)cc5n3)[C@H]3COC(=O)[C@H]23)OCO4)cc(OC)c1OC	10.9 µM

system: A549; experiment: Induction of cell cycle arrest in human A549 cells assessed as G1 phase cells at 1 uM by FACS analysis (reference value: 85.33%); format: functional; settings: not given

SMILES	Activity
COc1cc([C@@H]2c3cc4c(cc3[C@H](O)[C@H]3COC(=O)[C@H]23)OCO4)cc(OC)c1OC [PODOFILOX]	78.31%

system: A549; experiment: Induction of cell cycle arrest in human A549 cells assessed as G2/M phase cells at 1 uM by FACS analysis (reference value: 9.89%); format: functional; settings: not given

SMILES	Activity
COc1cc([C@@H]2c3cc4c(cc3[C@H](O)[C@H]3COC(=O)[C@H]23)OCO4)cc(OC)c1OC [PODOFILOX]	16.24%

system: A549; experiment: Cytotoxicity against human A549 cells […] by MTT assay; format: functional, cell-based; settings: not given

SMILES	IC50
COc1ccc(-c2cc(C(=O)N[C@@H]3c4cc5c(cc4[C@@H](c4cc(OC)c(OC)c(OC)c4)[C@H]4C(=O)OC[C@@H]43)OCO5)n[nH]2)cc1OC	39.5 µM
COc1cc([C@@H]2c3cc4c(cc3[C@@H](NC(=O)c3cc(-c5ccccc5)on3)[C@H]3COC(=O)[C@H]23)OCO4)cc(OC)c1OC	13.6 µM
COc1cc(-c2cc(C(=O)N[C@@H]3c4cc5c(cc4[C@@H](c4cc(OC)c(OC)c(OC)c4)[C@H]4C(=O)OC[C@@H]43)OCO5)n[nH]2)cc(OC)c1OC	15.2 µM
COc1cc(-c2cc(C(=O)N[C@@H]3c4cc5c(cc4[C@@H](c4cc(OC)c(OC)c(OC)c4)[C@H]4C(=O)OC[C@@H]43)OCO5)nc3cc(-c4ccccc4)nn23)cc(OC)c1OC	9.5 µM
COc1cc([C@@H]2c3cc4c(cc3[C@@H](NC(=O)c3cc(-c5ccc(F)c(F)c5)on3)[C@H]3COC(=O)[C@H]23)OCO4)cc(OC)c1OC	12.7 µM
COc1ccc(-c2cc(C(=O)N[C@@H]3c4cc5c(cc4[C@@H](c4cc(OC)c(OC)c(OC)c4)[C@H]4C(=O)OC[C@@H]43)OCO5)nc3cc(-c4ccccc4)nn23)cc1OC	17.3 µM
COc1ccc(-c2cc(C(=O)N[C@@H]3c4cc5c(cc4[C@@H](c4cc(OC)c(OC)c(OC)c4)[C@H]4C(=O)OC[C@@H]43)OCO5)nc3cc(-c4ccccc4)nn23)cc1	11.2 µM
COc1cc([C@@H]2c3cc4c(cc3[C@H](O)[C@H]3COC(=O)[C@H]23)OCO4)cc(OC)c1OC [PODOFILOX]	3.6 µM
COc1ccc(-c2cc(C(=O)N[C@@H]3c4cc5c(cc4[C@@H](c4cc(OC)c(OC)c(OC)c4)[C@H]4C(=O)OC[C@@H]43)OCO5)no2)cc1OC	23.1 µM
COc1ccc(-c2cc(C(=O)N[C@@H]3c4cc5c(cc4[C@@H](c4cc(OC)c(OC)c(OC)c4)[C@H]4C(=O)OC[C@@H]43)OCO5)no2)cc1	38.1 µM
COc1cc([C@@H]2c3cc4c(cc3[C@@H](NC(=O)c3cc(-c5ccc([N+](=O)[O-])cc5)n5nc(-c6ccccc6)cc5n3)[C@H]3COC(=O)[C@H]23)OCO4)cc(OC)c1OC	10.6 µM

system: A549; experiment: Induction of cell cycle arrest in human A549 cells assessed as S phase cells at 1 uM by FACS analysis (reference value: 3.69%); format: functional; settings: not given

SMILES	Activity
COc1cc([C@@H]2c3cc4c(cc3[C@H](O)[C@H]3COC(=O)[C@H]23)OCO4)cc(OC)c1OC [PODOFILOX]	3.67%

system: B16; experiment: Cytotoxicity against mouse B16 cells […] by MTT assay; format: functional, cell-based; settings: not given

SMILES	IC50
COc1ccc(-c2cc(C(=O)N[C@@H]3c4cc5c(cc4[C@@H](c4cc(OC)c(OC)c(OC)c4)[C@H]4C(=O)OC[C@@H]43)OCO5)n[nH]2)cc1OC	45.3 µM
COc1cc([C@@H]2c3cc4c(cc3[C@@H](NC(=O)c3cc(-c5ccccc5)on3)[C@H]3COC(=O)[C@H]23)OCO4)cc(OC)c1OC	16.3 µM
COc1cc(-c2cc(C(=O)N[C@@H]3c4cc5c(cc4[C@@H](c4cc(OC)c(OC)c(OC)c4)[C@H]4C(=O)OC[C@@H]43)OCO5)n[nH]2)cc(OC)c1OC	18.3 µM
COc1cc(-c2cc(C(=O)N[C@@H]3c4cc5c(cc4[C@@H](c4cc(OC)c(OC)c(OC)c4)[C@H]4C(=O)OC[C@@H]43)OCO5)nc3cc(-c4ccccc4)nn23)cc(OC)c1OC	12.7 µM
COc1cc([C@@H]2c3cc4c(cc3[C@@H](NC(=O)c3cc(-c5ccc(F)c(F)c5)on3)[C@H]3COC(=O)[C@H]23)OCO4)cc(OC)c1OC	27.5 µM
COc1ccc(-c2cc(C(=O)N[C@@H]3c4cc5c(cc4[C@@H](c4cc(OC)c(OC)c(OC)c4)[C@H]4C(=O)OC[C@@H]43)OCO5)nc3cc(-c4ccccc4)nn23)cc1OC	10.7 µM
COc1ccc(-c2cc(C(=O)N[C@@H]3c4cc5c(cc4[C@@H](c4cc(OC)c(OC)c(OC)c4)[C@H]4C(=O)OC[C@@H]43)OCO5)nc3cc(-c4ccccc4)nn23)cc1	18.3 µM
COc1cc([C@@H]2c3cc4c(cc3[C@H](O)[C@H]3COC(=O)[C@H]23)OCO4)cc(OC)c1OC [PODOFILOX]	2.5 µM
COc1ccc(-c2cc(C(=O)N[C@@H]3c4cc5c(cc4[C@@H](c4cc(OC)c(OC)c(OC)c4)[C@H]4C(=O)OC[C@@H]43)OCO5)no2)cc1OC	12.7 µM
COc1ccc(-c2cc(C(=O)N[C@@H]3c4cc5c(cc4[C@@H](c4cc(OC)c(OC)c(OC)c4)[C@H]4C(=O)OC[C@@H]43)OCO5)no2)cc1	22.5 µM
COc1cc([C@@H]2c3cc4c(cc3[C@@H](NC(=O)c3cc(-c5ccc([N+](=O)[O-])cc5)n5nc(-c6ccccc6)cc5n3)[C@H]3COC(=O)[C@H]23)OCO4)cc(OC)c1OC	18.4 µM

system: HeLa; experiment: Cytotoxicity against human HeLa cells […] by MTT assay; format: functional, cell-based; settings: not given

SMILES	IC50
COc1ccc(-c2cc(C(=O)N[C@@H]3c4cc5c(cc4[C@@H](c4cc(OC)c(OC)c(OC)c4)[C@H]4C(=O)OC[C@@H]43)OCO5)n[nH]2)cc1OC	25.1 µM
COc1cc([C@@H]2c3cc4c(cc3[C@@H](NC(=O)c3cc(-c5ccccc5)on3)[C@H]3COC(=O)[C@H]23)OCO4)cc(OC)c1OC	5.9 µM
COc1cc(-c2cc(C(=O)N[C@@H]3c4cc5c(cc4[C@@H](c4cc(OC)c(OC)c(OC)c4)[C@H]4C(=O)OC[C@@H]43)OCO5)n[nH]2)cc(OC)c1OC	11.5 µM
COc1cc(-c2cc(C(=O)N[C@@H]3c4cc5c(cc4[C@@H](c4cc(OC)c(OC)c(OC)c4)[C@H]4C(=O)OC[C@@H]43)OCO5)nc3cc(-c4ccccc4)nn23)cc(OC)c1OC	13.7 µM
COc1cc([C@@H]2c3cc4c(cc3[C@@H](NC(=O)c3cc(-c5ccc(F)c(F)c5)on3)[C@H]3COC(=O)[C@H]23)OCO4)cc(OC)c1OC	21.2 µM
COc1ccc(-c2cc(C(=O)N[C@@H]3c4cc5c(cc4[C@@H](c4cc(OC)c(OC)c(OC)c4)[C@H]4C(=O)OC[C@@H]43)OCO5)nc3cc(-c4ccccc4)nn23)cc1OC	14.4 µM
COc1ccc(-c2cc(C(=O)N[C@@H]3c4cc5c(cc4[C@@H](c4cc(OC)c(OC)c(OC)c4)[C@H]4C(=O)OC[C@@H]43)OCO5)nc3cc(-c4ccccc4)nn23)cc1	8.9 µM
COc1cc([C@@H]2c3cc4c(cc3[C@H](O)[C@H]3COC(=O)[C@H]23)OCO4)cc(OC)c1OC [PODOFILOX]	2.8 µM
COc1ccc(-c2cc(C(=O)N[C@@H]3c4cc5c(cc4[C@@H](c4cc(OC)c(OC)c(OC)c4)[C@H]4C(=O)OC[C@@H]43)OCO5)no2)cc1OC	13.3 µM
COc1ccc(-c2cc(C(=O)N[C@@H]3c4cc5c(cc4[C@@H](c4cc(OC)c(OC)c(OC)c4)[C@H]4C(=O)OC[C@@H]43)OCO5)no2)cc1	11.2 µM
COc1cc([C@@H]2c3cc4c(cc3[C@@H](NC(=O)c3cc(-c5ccc([N+](=O)[O-])cc5)n5nc(-c6ccccc6)cc5n3)[C@H]3COC(=O)[C@H]23)OCO4)cc(OC)c1OC	12.1 µM

system: A549; experiment: Induction of cell cycle arrest in human A549 cells assessed as sub G1 phase cells at 1 uM by FACS analysis (reference value: 1.08%); format: functional; settings: not given

SMILES	Activity
COc1cc([C@@H]2c3cc4c(cc3[C@H](O)[C@H]3COC(=O)[C@H]23)OCO4)cc(OC)c1OC [PODOFILOX]	1.83%

Source: ChEMBL document CHEMBL2311264, “Synthesis and anticancer activity of heteroaromatic linked 4β-amido podophyllotoxins as apoptotic inducing agents” (Bioorg Med Chem Lett, 2013)
